Source: US4791059A, “Process for preparing lipase” (Suntory Limited, priority 1984, dated 1988)

Tested on: lipase
Experiment: Inhibition and activation of lipase activity by divalent metal ions, SH reagent and surface-active agents
Assay type: biochemical, Staphylococcus capitis
Protocol: The effects of the divalent metal ions, SH reagent and surface-active agents on the lipase activity were evaluated by measuring the residual activities after treatment. […] The lipase activity is increased 3-fold to 5-fold by the presence of Ca^2+.
The lipase activity is more than 90% inhibited by 2 mM sodium laurylsulfate (SDS), 2 mM iodine acetamide, 0.1% Tween 20, 0.1% Tween 80, and 0.1% Triton X-100.
One milliliter of olive oil is added to a test tube (.phi.25×200 mm) containing 5 ml of a reaction mixture consisting of 25 mM of a Tris-HCl buffer (pH 8.0) and 10 mM of CaCl2, the tube is stirred vigorously with a mixer, and 0.5 ml of an enzyme solution is added to the tube. The reaction is carried out during which the tube is shaken at 300 rpm on a reciprocating shaker. The reaction is stopped on the addition of 20 ml of ethanol and the fatty acids formed are titrated with 0.05 N of an aqueous sodium hydroxide solution. The control values are likewise determined by titrating the solution obtained by first adding ethanol to a reaction mixture of the composition and then adding an enzyme solution to the same. According to a proposal by Enzyme Nomenclature; recommendations (1978) of the nomenclature committee of the International Union of Biochemistry (I.U.B.), Academic Press, a unit of lipase activity is defined as that amount of lipase required to liberate 1 μmole of fatty acids per minute under reaction conditions.

[Ca+2] [Ca^2+]
inhibition of lipase activity (residual activity after treatment) (10 mM): No inhibition

[Cu+2] [Cu^2+]
inhibition of lipase activity (residual activity after treatment) (10 mM): No inhibition

[Fe+2] [Fe^2+]
inhibition of lipase activity (residual activity after treatment) (1 mM): No inhibition

[Mg+2] [Mg^2+]
inhibition of lipase activity (residual activity after treatment) (10 mM): No inhibition

[Mn+2] [Mn^2+]
inhibition of lipase activity (residual activity after treatment) (10 mM): No inhibition

CCCCCCCC/C=C\CCCCCCCC(=O)OCCOCC(OCCO)C1OCC(OCCO)C1OCCO (stereo not shown) [Tween 80]
inhibition of lipase activity (0.1%): more than 90%

[Zn+2] [Zn^2+]
inhibition of lipase activity (residual activity after treatment) (10 mM): No inhibition

NC(=O)CI [iodine acetamide]
inhibition of lipase activity (2 mM): more than 90%

CCCCCCCCCCCCOS(=O)(=O)[O-].[Na+] [sodium laurylsulfate (SDS), sodium laurylsulfate]
inhibition of lipase activity (2 mM): more than 90%

Triton X-100
inhibition of lipase activity (0.1%): more than 90%
